{
  "source": "patent US20190314312A1",
  "about": "“COMBINATION THERAPY TO INCREASE ENDOGENOUS NITRIC OXIDE (NO) SYNTHESIS” (Yeda Research and Development Co. Ltd., priority 2016, published 2019)",
  "key": {"enterocytes": {"system": "enterocytes", "experiment": "FACS analysis of colon epithelial cells (enterocytes) after colitis induction", "assay_type": "in vivo, mouse", "method": "(§1) Colon segment was flushed with cold PBS, longitudinally cut open and rinsed to remove residual luminal contents. Tissue was cut into 3- to 5-mm pieces and incubated in HBSS medium containing EDTA 0.5 M and Hepes 10 mM at 37° C. for 20 minutes, shaken at 180 rpm, to separate epithelial fraction. Supernatant was centrifuged at 4° C. at 500 g for 10 minutes. Recovered tissue was digested in HBSS medium with 2% fetal bovine serum (FBS), 0.05% collagenase II and 0.05% DNase I (Sigma) for 40 minutes. at 37° C., shaken at 180 rpm. LP cells were filtered through 65 μm mesh and centrifuged at 4° C. at 500 g for 10 minutes. The present inventors prepared single cell suspensions from mouse colon by enzymatic digestion and analyzed by polychromatic flow cytometry. Samples were stained with conjugated antibodies or matching isotype controls according to manufacturer's instructions. Data were acquired on an LSRII (BD Biosciences) or FACSCalibur instrument (Becton-Dickinson) with CellQuest software, with a MacsQuant instrument (Miltenyi, Bergisch Gladbach, Germany), and analyzed using BD FACSDiva 6 or FlowJo software (version 7.6.5, or version vX.0.7 Tree Star Inc) or MacsQuant. Colon cells were stained for 30 min at 4° C. in flow cytometry buffer (PBS, 10% FCS and 0.02% azide). For antigens that require intracellular staining (As1, iNOS and S-nitrosocystein), cell surface staining was followed by cell fixation and permeabilization with the Cytofix/Cytoperm kit (BD Biosciences) according to the manufacturer's instructions. For staining, the present inventors used a lineage cocktail of antibodies anti-CD45-APC, Anti-CD64-PE, Anti-CD11c-PB, Anti-326-APC cy7, Anti CD31-PE cy7 (all from BioLegend). After staining for cell surface antigens, intracellular NO was detected by incubation of cells for 15 min at 37° C. with 10 μM DAF-FM diacetate followed by extensive washing, according to the manufacturer's instructions (Molecular Probes). Staining without addition of the DAF-FM probe was considered to be the baseline for gating the positive population. As1 was detected using anti-As1-ALEXA FLUOR® 488 (BD Biosciences), iNOS using anti-iNOS followed by anti-rat 488 (Jackson ImmunoResearch), and nitrosylation using anti-S-nitrosocystein (from abcam) followed by anti-mouse 488 (Jackson ImmunoResearch)."}, "C57BL/6J.OlaaHsd mice": {"system": "C57BL/6J.OlaaHsd mice", "experiment": "DSS-induced colitis, treatment with arginine, citrulline, NaNO2, fisetin or citrulline plus fisetin", "assay_type": "in vivo, mouse", "conditions": "day 12; fisetin, citrulline or both vs DMSO control; FIG. 4C"}, "enterocytes CKO mice": {"system": "enterocytes CKO mice", "experiment": "DSS colitis (0.8% DSS) in enterocytes CKO mice, fisetin or NaNO2", "assay_type": "in vivo, mouse", "conditions": "0.8% DSS 5 days, fisetin 1 mg IP twice, FIGS. 4L-N", "method": "Colitis was induced on C57BL/6J.OlaaHsd mice. Mice were treated with 1% DSS for 6 days, followed by administration of either fiselin (1 mg in 30 μl DMSO IP, twice, in 3 days interval) citrulline 1% (wt/vol) solution in drinking water, the combination of both treatments or only DMSO as a control (30 μl DMSO IP, twice, in 3 days interval). […] FIGS. 4L-N—Colitis was induced on enterocytes CKO mice and compared to controls. Mice were treated with 0.8% DSS for 5 days, followed by administration with either NO donors; NaNO2 (100 mg/kg) or fisetin (1 mg in 30 μl DMSO IP, twice, in 3 days interval). […] Note that colitis severity is reduced by activating As1 in enterocytes, by citrulline and fisetin supplementation.\nColitis was induced in Vav1^Cre:As1^f/f mice and CD11c^Cre:As1^f/f with 1.5% DSS and with 0.8% DSS in the Villin^Cre:As1^f/f (wt/vol), (Dextran Sodium Sulfate, MP Biomedicals; molecular weight 36,000-50,000 Da). […]\nColonoscopy was performed on days 7 and 11 of the experiment to monitor for severity of colitis. […] The endoscopic procedure was viewed on a color monitor and digitally recorded on tape. Colitis was scored according to the Murine endoscopic index of colitis severity (MEICS), considering differences in the thickness of the bowel wall, changes in blood vessel integrity, mucosal surface, stool consistency or the presence of fibrin, scored each between 0 and 3. […]"}, "[1]": {"system": "CD64+, CD11c+ macrophages", "experiment": "FACS analysis of colon CD64+, CD11c+ macrophages after colitis induction", "assay_type": "in vivo, mouse", "conditions": "fisetin vs control, FIGS. 14D-F", "method": "as §1, with “For staining, the present inventors used a lineage cocktail of antibodies anti-CD45-APC, Anti-CD64-PE, Anti-CD11c-PB, Anti-326-APC cy7, Anti CD31-PE cy7 (all from BioLegend).” left out, “Staining without addition of the DAF-FM probe was considered to be the baseline for gating the positive population.” left out"}, "Ass1": {"system": "Ass1", "experiment": "Immunohistochemistry staining of distal colon sections for Ass1", "assay_type": "in vivo, mouse", "conditions": "after colitis induction, fisetin treatment, FIG. 4A"}, "[2]": {"system": "lipopolysaccharide (LPS)-stimulated mouse primary peritoneal macrophages", "conditions": "in vitro; cited from earlier work"}, "[3]": {"system": "CD45+ immune system cells", "experiment": "FACS analysis of colon CD45+ immune system cells after colitis induction", "assay_type": "in vivo, mouse", "conditions": "fisetin vs control after colitis induction, FIGS. 14A-C", "method": "Colon segment was flushed with cold PBS, longitudinally cut open and rinsed to remove residual luminal contents. Tissue was cut into 3- to 5-mm pieces and incubated in HBSS medium containing EDTA 0.5 M and Hepes 10 mM at 37° C. for 20 minutes, shaken at 180 rpm, to separate epithelial fraction. Supernatant was centrifuged at 4° C. at 500 g for 10 minutes. Recovered tissue was digested in HBSS medium with 2% fetal bovine serum (FBS), 0.05% collagenase II and 0.05% DNase I (Sigma) for 40 minutes. at 37° C., shaken at 180 rpm. LP cells were filtered through 65 μm mesh and centrifuged at 4° C. at 500 g for 10 minutes. The present inventors prepared single cell suspensions from mouse colon by enzymatic digestion and analyzed by polychromatic flow cytometry. […] Data were acquired on an LSRII (BD Biosciences) or FACSCalibur instrument (Becton-Dickinson) with CellQuest software, with a MacsQuant instrument (Miltenyi, Bergisch Gladbach, Germany), and analyzed using BD FACSDiva 6 or FlowJo software (version 7.6.5, or version vX.0.7 Tree Star Inc) or MacsQuant. […] After staining for cell surface antigens, intracellular NO was detected by incubation of cells for 15 min at 37° C. with 10 μM DAF-FM diacetate followed by extensive washing, according to the manufacturer's instructions (Molecular Probes). […]"}},
  "note": "Entries after “also recorded” stand apart in the source; their conditions may differ.",
  "data": [
    {"smiles": "O=c1c(O)c(-c2ccc(O)c(O)c2)oc2cc(O)ccc12", "note": "[fisetin, 3,7, 3′, 4′-tetrahydroxyflavone]", "values": [
      {"measurement": "NO levels in enterocytes (colon epithelial cells)", "setting": "enterocytes; after colitis induction, treated vs control, FIGS. 3F-J, 4F-I", "result": "increased; also recorded: significant increase"},
      {"measurement": "iNOS expression in enterocytes (colon cells)", "setting": "enterocytes; fisetin vs control after colitis induction, FIGS. 4J-K", "result": "increased; also recorded: significant increase"},
      {"measurement": "ASL levels in enterocytes", "setting": "enterocytes; fisetin, FIGS. 4H-L", "result": "increase"},
      {"measurement": "endoscopic colitis score", "setting": "C57BL/6J.OlaaHsd mice", "result": "significant improvement"},
      {"measurement": "effect of treatment on colitis (survival, body weight gain, colitis score)", "setting": "enterocytes CKO mice", "result": "did not have an effect"},
      {"measurement": "effect of treatment on colitis (survival, body weight gain, colitis score)", "setting": "enterocytes CKO mice; listed as Fisetin", "result": "not in the enterocytes CKO mice"},
      {"measurement": "As1 levels", "setting": "[1]", "result": "decrease"},
      {"measurement": "NO levels", "setting": "[1]", "result": "decrease"},
      {"measurement": "iNOS levels", "setting": "[1]", "result": "decrease"},
      {"measurement": "Ass1 expression in distal colon sections (enterocytes)", "setting": "Ass1", "result": "up regulation"},
      {"measurement": "Ass1 expression in distal colon sections (enterocytes)", "setting": "Ass1; listed as fesitin", "result": "upregulated"},
      {"measurement": "pro-inflammatory cytokine", "setting": "[2]", "result": "significantly reduces pro-inflammatory cytokine"},
      {"measurement": "As1 levels", "setting": "[3]", "result": "decrease"},
      {"measurement": "iNOS levels", "setting": "[3]", "result": "not in the intestinal immune cells; also recorded: decrease"}
    ]}
  ]
}
